In PubChem BioAssay (NCI):
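These data come from cells grown in 96-well plates and exposed to compound for 48 hours at five concentrations. The concentration for 50% growth inhibition is given as GI50. TGI marks complete inhibition of growth.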

Columns and labels:
Assay in all cases: NCI-60 cell line screen, 48 h
IGROV1 ovarian = system: IGROV1 ovarian
HOP-62 NSCLC = system: HOP-62 NSCLC
MOLT-4 leukemia = system: MOLT-4 leukemia
UO-31 renal = system: UO-31 renal
NCI/ADR-RES ovarian = system: NCI/ADR-RES ovarian
A549 NSCLC = system: A549 NSCLC
MDA-MB-231 breast = system: MDA-MB-231 breast
HT29 colon = system: HT29 colon
HOP-92 NSCLC = system: HOP-92 NSCLC
CCRF-CEM leukemia = system: CCRF-CEM leukemia
SK-MEL-28 melanoma = system: SK-MEL-28 melanoma
DU-145 prostate = system: DU-145 prostate
NCI-H226 lung = system: NCI-H226 lung
TK-10 renal = system: TK-10 renal
HCT-15 colon = system: HCT-15 colon
SF-295 CNS = system: SF-295 CNS
UACC-257 melanoma = system: UACC-257 melanoma
SN12C renal = system: SN12C renal
ACHN renal = system: ACHN renal
PC-3 prostate = system: PC-3 prostate
NCI-H522 lung = system: NCI-H522 lung
CAKI-1 renal = system: CAKI-1 renal
MALME-3M melanoma = system: MALME-3M melanoma
HS 578T breast = system: HS 578T breast
K-562 leukemia = system: K-562 leukemia
SW-620 colon = system: SW-620 colon
OVCAR-8 ovarian = system: OVCAR-8 ovarian
OVCAR-4 ovarian = system: OVCAR-4 ovarian
M14 melanoma = system: M14 melanoma
KM12 colon = system: KM12 colon
UACC-62 melanoma = system: UACC-62 melanoma
BT-549 breast = system: BT-549 breast
A498 renal = system: A498 renal
786-0 renal = system: 786-0 renal
RPMI-8226 leukemia = system: RPMI-8226 leukemia
NCI-H23 lung = system: NCI-H23 lung
U251 CNS = system: U251 CNS
SF-268 CNS = system: SF-268 CNS
SK-MEL-2 melanoma = system: SK-MEL-2 melanoma
EKVX NSCLC = system: EKVX NSCLC
HCC-2998 colon = system: HCC-2998 colon
OVCAR-5 ovarian = system: OVCAR-5 ovarian
RXF 393 renal = system: RXF 393 renal
OVCAR-3 ovarian = system: OVCAR-3 ovarian
SF-539 CNS = system: SF-539 CNS
HCT-116 colon = system: HCT-116 colon
SK-MEL-5 melanoma = system: SK-MEL-5 melanoma
MDA-MB-435 = system: MDA-MB-435
NCI-H460 lung = system: NCI-H460 lung
SR leukemia = system: SR leukemia
SNB-75 CNS = system: SNB-75 CNS
SNB-19 CNS = system: SNB-19 CNS
SK-OV-3 ovarian = system: SK-OV-3 ovarian
T-47D breast = system: T-47D breast
COLO 205 colon = system: COLO 205 colon
HL-60(TB) leukemia = system: HL-60(TB) leukemia
LOX IMVI melanoma = system: LOX IMVI melanoma
MCF7 breast = system: MCF7 breast

Cc1sc2nc(-c3cc([N+](=O)[O-])c(Cl)cc3Cl)c(/C=N/N=C(N)N)n2c1C
TGI (IGROV1 ovarian): 9.12 µM
TGI (HOP-62 NSCLC): > 100 µM
TGI (MOLT-4 leukemia): 4.64 µM
TGI (UO-31 renal): 26.4 µM
TGI (NCI/ADR-RES ovarian): > 100 µM
TGI (A549 NSCLC): > 100 µM
TGI (MDA-MB-231 breast): 34.6 µM
TGI (HT29 colon): 9 µM
TGI (HOP-92 NSCLC): 31.5 µM
TGI (CCRF-CEM leukemia): > 100 µM
TGI (SK-MEL-28 melanoma): 6.58 µM
TGI (DU-145 prostate): 39.1 µM
TGI (NCI-H226 lung): 75.2 µM
TGI (TK-10 renal): 35.7 µM
TGI (HCT-15 colon): > 100 µM
TGI (SF-295 CNS): 36.4 µM
TGI (UACC-257 melanoma): 26 µM
TGI (SN12C renal): 28.5 µM
TGI (ACHN renal): 39.2 µM
TGI (PC-3 prostate): 36.2 µM
TGI (NCI-H522 lung): 34.2 µM
TGI (CAKI-1 renal): 33.9 µM
TGI (MALME-3M melanoma): 39.3 µM
TGI (HS 578T breast): 82.7 µM
TGI (K-562 leukemia): 9.95 µM
TGI (SW-620 colon): 69.3 µM
TGI (OVCAR-8 ovarian): 31.6 µM
TGI (OVCAR-4 ovarian): 9 µM
TGI (M14 melanoma): 7 µM
TGI (KM12 colon): 19.5 µM
TGI (UACC-62 melanoma): 39.5 µM
TGI (BT-549 breast): 12 µM
TGI (A498 renal): 38.6 µM
TGI (786-0 renal): > 100 µM
TGI (RPMI-8226 leukemia): 54 µM
TGI (NCI-H23 lung): 18.7 µM
TGI (U251 CNS): > 100 µM
TGI (SF-268 CNS): 66.1 µM
TGI (SK-MEL-2 melanoma): 5.78 µM
TGI (EKVX NSCLC): 48.4 µM
TGI (HCC-2998 colon): 5.39 µM
TGI (OVCAR-5 ovarian): > 100 µM
TGI (RXF 393 renal): 20.6 µM
TGI (OVCAR-3 ovarian): 30.3 µM
TGI (SF-539 CNS): 88 µM
TGI (HCT-116 colon): > 100 µM
TGI (SK-MEL-5 melanoma): 27.1 µM
TGI (MDA-MB-435): 16.6 µM
TGI (NCI-H460 lung): 54.7 µM

COc1cc(OC)c(OC)cc1/C=C\c1nccc2ccccc12
TGI (IGROV1 ovarian): 87 µM
TGI (MOLT-4 leukemia): 95.8 µM
TGI (SR leukemia): > 100 µM
TGI (UO-31 renal): 64.1 µM
TGI (SNB-75 CNS): 50.6 µM
TGI (NCI/ADR-RES ovarian): > 100 µM
TGI (A549 NSCLC): > 100 µM
TGI (SNB-19 CNS): 61.4 µM
TGI (HOP-92 NSCLC): 32.9 µM
TGI (CCRF-CEM leukemia): > 100 µM
TGI (SK-MEL-28 melanoma): 74.7 µM
TGI (DU-145 prostate): 34.4 µM
TGI (TK-10 renal): 88.9 µM
TGI (SF-295 CNS): 56.1 µM
TGI (PC-3 prostate): 60.2 µM
TGI (CAKI-1 renal): 68.3 µM
TGI (MALME-3M melanoma): > 100 µM
TGI (HS 578T breast): 94.3 µM
TGI (K-562 leukemia): > 100 µM
TGI (SW-620 colon): 83.4 µM
TGI (OVCAR-8 ovarian): 78.9 µM
TGI (OVCAR-4 ovarian): > 100 µM
TGI (M14 melanoma): 31.1 µM
TGI (KM12 colon): 33.5 µM
TGI (RPMI-8226 leukemia): 59.2 µM
TGI (SK-OV-3 ovarian): > 100 µM
TGI (NCI-H23 lung): 51.7 µM
TGI (U251 CNS): 65.5 µM
TGI (SF-268 CNS): 58.8 µM
TGI (EKVX NSCLC): 89.7 µM
TGI (OVCAR-5 ovarian): 98.3 µM
TGI (T-47D breast): 80.4 µM
TGI (COLO 205 colon): 38 µM
TGI (RXF 393 renal): 39 µM
TGI (HL-60(TB) leukemia): 73.2 µM
TGI (HCT-116 colon): 33.4 µM
TGI (SK-MEL-5 melanoma): 29.5 µM

COc1cc(/C=C2\CC3C4CC=C5C[C@@H](OC(C)=O)CC[C@]5(C)C4CC[C@]3(C)C2=O)ccc1OCCCn1ccnc1 (stereo partly drawn)
GI50 (IGROV1 ovarian): 13.7 µM
TGI (IGROV1 ovarian): 46.8 µM
GI50 (HOP-62 NSCLC): 8.83 µM
TGI (HOP-62 NSCLC): 16.4 µM
GI50 (MOLT-4 leukemia): 20.5 µM
TGI (MOLT-4 leukemia): > 50 µM
GI50 (UO-31 renal): 9.14 µM
TGI (UO-31 renal): 19.9 µM
GI50 (LOX IMVI melanoma): 8.63 µM
TGI (LOX IMVI melanoma): 15.5 µM
GI50 (MCF7 breast): 9.36 µM
TGI (MCF7 breast): 21 µM
GI50 (NCI/ADR-RES ovarian): 8.94 µM
TGI (NCI/ADR-RES ovarian): 19.5 µM
GI50 (A549 NSCLC): 13 µM
TGI (A549 NSCLC): 33.9 µM
GI50 (SNB-19 CNS): 20.2 µM
TGI (SNB-19 CNS): > 50 µM
GI50 (MDA-MB-231 breast): 8.05 µM
TGI (MDA-MB-231 breast): 15.4 µM
GI50 (HT29 colon): 16 µM
TGI (HT29 colon): > 50 µM
GI50 (HOP-92 NSCLC): 25.4 µM
TGI (HOP-92 NSCLC): > 50 µM
GI50 (SK-MEL-28 melanoma): 16 µM
TGI (SK-MEL-28 melanoma): > 50 µM
GI50 (DU-145 prostate): 1.31 µM
TGI (DU-145 prostate): 10.2 µM
GI50 (NCI-H226 lung): 8.26 µM
TGI (NCI-H226 lung): 17.8 µM
GI50 (TK-10 renal): 7.08 µM
TGI (TK-10 renal): 17.3 µM
GI50 (HCT-15 colon): 9.52 µM
TGI (HCT-15 colon): 20.4 µM
GI50 (SF-295 CNS): 9.22 µM
TGI (SF-295 CNS): 22.3 µM
GI50 (UACC-257 melanoma): 10.4 µM
TGI (UACC-257 melanoma): 22.5 µM
GI50 (SN12C renal): 8.99 µM
TGI (SN12C renal): 16.6 µM
GI50 (ACHN renal): 9.81 µM
TGI (ACHN renal): 21 µM
GI50 (PC-3 prostate): 18 µM
TGI (PC-3 prostate): 42.1 µM
GI50 (NCI-H522 lung): 19 µM
TGI (NCI-H522 lung): > 50 µM
GI50 (CAKI-1 renal): 5.81 µM
TGI (CAKI-1 renal): 27.3 µM
GI50 (HS 578T breast): 8.26 µM
TGI (HS 578T breast): 21.3 µM
GI50 (K-562 leukemia): 9.69 µM
TGI (K-562 leukemia): 24.7 µM
GI50 (SW-620 colon): 10.1 µM
TGI (SW-620 colon): 23.3 µM
GI50 (OVCAR-8 ovarian): 11 µM
TGI (OVCAR-8 ovarian): 21.6 µM
GI50 (M14 melanoma): 9.28 µM
TGI (M14 melanoma): 17.9 µM
GI50 (KM12 colon): 8.75 µM
TGI (KM12 colon): 16.2 µM
GI50 (UACC-62 melanoma): 8.4 µM
TGI (UACC-62 melanoma): 16.5 µM
GI50 (A498 renal): 9.31 µM
TGI (A498 renal): 21.6 µM
GI50 (786-0 renal): 8.87 µM
TGI (786-0 renal): 16 µM
GI50 (RPMI-8226 leukemia): 9.66 µM
TGI (RPMI-8226 leukemia): 24.2 µM
GI50 (NCI-H23 lung): 8.35 µM
TGI (NCI-H23 lung): 17.7 µM
GI50 (U251 CNS): 8.93 µM
TGI (U251 CNS): 15.9 µM
GI50 (SF-268 CNS): 9.13 µM
TGI (SF-268 CNS): 21.5 µM
GI50 (SK-MEL-2 melanoma): 16.8 µM
TGI (SK-MEL-2 melanoma): > 50 µM
GI50 (EKVX NSCLC): 0.0741 µM
TGI (EKVX NSCLC): 5.18 µM
GI50 (HCC-2998 colon): 14.6 µM
TGI (HCC-2998 colon): 23 µM
GI50 (OVCAR-5 ovarian): 11.9 µM
TGI (OVCAR-5 ovarian): 40.9 µM
GI50 (T-47D breast): 19.8 µM
TGI (T-47D breast): > 50 µM
GI50 (COLO 205 colon): 20.7 µM
TGI (COLO 205 colon): > 50 µM
GI50 (RXF 393 renal): 13 µM
TGI (RXF 393 renal): 30.3 µM
GI50 (OVCAR-3 ovarian): 9.79 µM
TGI (OVCAR-3 ovarian): 21.2 µM
GI50 (HL-60(TB) leukemia): 11.2 µM
TGI (HL-60(TB) leukemia): 21.8 µM
GI50 (SF-539 CNS): 6.89 µM
TGI (SF-539 CNS): 14.2 µM
GI50 (HCT-116 colon): 13.4 µM
TGI (HCT-116 colon): 29.6 µM
GI50 (SK-MEL-5 melanoma): 9.39 µM
TGI (SK-MEL-5 melanoma): 21.5 µM
GI50 (MDA-MB-435): 10.3 µM
TGI (MDA-MB-435): 26.6 µM
GI50 (NCI-H460 lung): 9.32 µM
TGI (NCI-H460 lung): 21.1 µM
